Molecular target: T1, NF-κB (recombinant human NF-κB; docking used NF-κB p65-RelA) (Homo sapiens, UniProt Q04206)
T1 construct: commercial recombinant protein (Sino Biological); labelled with RED-NHS 2nd generation dye on lysines
Assay: microscale thermophoresis
Format: binding

T1 sequence (Q04206 whole entry): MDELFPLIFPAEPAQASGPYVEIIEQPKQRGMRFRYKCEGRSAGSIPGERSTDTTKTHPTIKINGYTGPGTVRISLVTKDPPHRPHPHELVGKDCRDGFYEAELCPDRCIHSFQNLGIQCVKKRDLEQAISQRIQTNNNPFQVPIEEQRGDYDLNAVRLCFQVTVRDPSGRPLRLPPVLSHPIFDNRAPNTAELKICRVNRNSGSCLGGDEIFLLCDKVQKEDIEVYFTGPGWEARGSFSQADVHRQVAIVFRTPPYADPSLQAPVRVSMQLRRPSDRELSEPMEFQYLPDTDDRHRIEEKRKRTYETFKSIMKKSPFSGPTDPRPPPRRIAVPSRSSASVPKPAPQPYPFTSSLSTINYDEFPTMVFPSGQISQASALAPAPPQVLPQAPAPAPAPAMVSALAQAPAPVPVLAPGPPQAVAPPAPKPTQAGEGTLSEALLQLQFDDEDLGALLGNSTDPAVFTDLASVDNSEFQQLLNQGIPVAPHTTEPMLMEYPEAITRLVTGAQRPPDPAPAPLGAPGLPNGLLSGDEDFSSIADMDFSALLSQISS

- Kd: 943 ± 113 nM
SMILES: CC1(C)CC[C@]2(C)CC[C@]3(C)C(=CC[C@@H]4[C@@]5(C)CC[C@H](O)C(C)(C)[C@@H]5CC[C@]43C)[C@@H]2C1 [β-amyrin]
